# From patent US10597388B2, “Pyridazinone herbicides” (FMC CORPORATION, priority 2014, dated 2020)
# Where two headings read alike, the source gives them in different places.
# What was measured:
# [1] = tested on: crabgrass, large (large crabgrass, Digitaria sanguinalis); experiment: Test A greenhouse herbicide test, pre- and postemergence; assay type: in vivo; conditions: 240 h, 1000 g ai/ha, 0 to 100 scale
# How it was run: (§1)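 Seeds in loam–sand blend received a preemergence directed soil spray; plants at 2–10 cm, one- to two-leaf stage, received postemergence sprays. Compounds in a non-phytotoxic solvent with surfactant. After about 10 d in a greenhouse, injury rated visually versus untreated controls on a 0–100 scale (100 = complete control).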
# [2] = tested on: momingglory (Ipomoea spp.); experiment: as above; assay type: in vivo; conditions: 240 h, 1000 g ai/ha, 0 to 100 scale
# How it was run: as §1
# [3] = tested on: barnyardgrass (Echinochloa crus-galli); experiment: as above; assay type: in vivo; conditions: Echinochloa crus-galli, 240 h, 1000 g ai/ha, 0 to 100 scale
# How it was run: as §1
# [4] = tested on: foxtail, giant (giant foxtail, Setaria faberii); experiment: as above; assay type: in vivo; conditions: Setaria faberi, 240 h, 1000 g ai/ha, 0 to 100 scale
# How it was run: as §1
# [5] = tested on: wheat (Triticum aestivum); experiment: as above; assay type: in vivo; conditions: Triticum aestivum, 240 h, 1000 g ai/ha, 0 to 100 scale
# How it was run: as §1
# [6] = tested on: velvetleaf (Abutilon theophrasti); experiment: as above; assay type: in vivo; conditions: 240 h, 1000 g ai/ha, 0 to 100 scale
# How it was run: as §1
# [7] = tested on: pigweed (Amaranthus retroflexus); experiment: as above; assay type: in vivo; conditions: Amaranthus retroflexus, 240 h, 1000 g ai/ha, 0 to 100 scale
# How it was run: as §1
# [8] = tested on: corn (Zea mays); experiment: as above; assay type: in vivo; conditions: Zea mays, 240 h, 1000 g ai/ha, 0 to 100 scale
# How it was run: as §1
# [9] = tested on: ducksalad (Heteranthera limosa); experiment: Test B flooded paddy test; assay type: in vivo; conditions: Heteranthera limosa, 360 h; 250 g ai/ha, Flood; visual rating on scale of 0 to 100 where 0 is no effect and 100 is complete control; 13 to 15 d after treatment; read-out: Plant response rating, Ducksalad
# How it was run: (§2)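 Plants grown to the 2-leaf stage. At treatment, pots were flooded to 3 cm above the soil, compound was applied directly to the paddy water, and that depth was held throughout. After 13 to 15 d in the greenhouse, response was rated visually against controls on a 0 (no effect) to 100 (complete control) scale.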
# [10] = tested on: barnyardgrass (Echinochloa crus-galli); experiment: Test B flooded paddy test; assay type: in vivo; conditions: Echinochloa crus-galli, 360 h; 250 g ai/ha, Flood; visual rating on scale of 0 to 100 where 0 is no effect and 100 is complete control; 13 to 15 d after treatment; read-out: Plant response rating, Barnyardgrass
# How it was run: as §2
# [11] = tested on: sedge, umbrella (small-flower umbrella sedge, Cyperus difformis); experiment: Test B flooded paddy test; assay type: in vivo; conditions: Cyperus difformis, 360 h; 250 g ai/ha, Flood; visual rating on scale of 0 to 100 where 0 is no effect and 100 is complete control; 13 to 15 d after treatment; read-out: Plant response rating, Sedge, Umbrella
# How it was run: as §2
# [12] = tested on: rice (Oryza sativa); experiment: Test B flooded paddy test; assay type: in vivo; conditions: Oryza sativa, 360 h; 250 g ai/ha, Flood; visual rating on scale of 0 to 100 where 0 is no effect and 100 is complete control; 13 to 15 d after treatment; read-out: Plant response rating, Rice
# How it was run: as §2
smiles,measurement,setting,value
"Cc1nn(C)c(=O)c(-c2c(C)oc3ccccc23)c1O [Compound 4, 5-hydroxy-2,6-dimethyl-4-(2-methyl-3-benzofuranyl)-3 (2H)-pyridazinone]",pest or weed control at 1000 g/ha,"[1]; post-emergence, Postemergence, 0 is no effect, 100 is complete control, read-out: Crabgrass, Large plant response rating",50%
same,pest or weed control at 1000 g/ha,"[1]; pre-emergence, Preemergence, 0 no effect, 100 complete control, read-out: Plant response rating, Crabgrass, Large",80%
same,pest or weed control at 1000 g/ha,"[2]; post-emergence, Postemergence, 0 is no effect, 100 is complete control, read-out: Morningglory plant response rating",70%
same,pest or weed control at 1000 g/ha,"[2]; pre-emergence, Preemergence, 0 no effect, 100 complete control, read-out: Plant response rating, Morningglory",60%
same,pest or weed control at 1000 g/ha,"[3]; post-emergence, Postemergence, 0 is no effect, 100 is complete control, read-out: Barnyardgrass plant response rating",70%
same,pest or weed control at 1000 g/ha,"[3]; pre-emergence, Preemergence, 0 no effect, 100 complete control, read-out: Plant response rating, Barnyardgrass",100%
same,pest or weed control at 1000 g/ha,"[4]; post-emergence, Postemergence, 0 is no effect, 100 is complete control, read-out: Foxtail, Giant plant response rating",80%
same,pest or weed control at 1000 g/ha,"[4]; pre-emergence, Preemergence, 0 no effect, 100 complete control, read-out: Plant response rating, Foxtail, Giant",80%
same,plant injury at 1000 g/ha,"[5]; post-emergence, Postemergence, 0 is no effect, 100 is complete control, read-out: Wheat plant response rating",0%
same,plant injury at 1000 g/ha,"[5]; pre-emergence, Preemergence, 0 no effect, 100 complete control, read-out: Plant response rating, Wheat",0%
same,pest or weed control at 1000 g/ha,"[6]; post-emergence, Postemergence, 0 is no effect, 100 is complete control, read-out: Velvetleaf plant response rating",60%
same,pest or weed control at 1000 g/ha,"[6]; pre-emergence, Preemergence, 0 no effect, 100 complete control, read-out: Plant response rating, Velvetleaf",40%
same,pest or weed control at 1000 g/ha,"[7]; post-emergence, Postemergence, 0 is no effect, 100 is complete control, read-out: Pigweed plant response rating",50%
same,pest or weed control at 1000 g/ha,"[7]; pre-emergence, Preemergence, 0 no effect, 100 complete control, read-out: Plant response rating, Pigweed",70%
same,plant injury at 1000 g/ha,"[8]; post-emergence, Postemergence, 0 is no effect, 100 is complete control, read-out: Corn plant response rating",0%
same,"Corn plant response rating (crop injury, 0 = no effect, 100 = complete kill) at 1000 g/ha","[8]; pre-emergence, Preemergence, 0 no effect, 100 complete control",10%
same,melting point,,238 to 240 °C
same,pest or weed control at 250 g/ha,[9],0%
same,pest or weed control at 250 g/ha,[10],0%
same,pest or weed control at 250 g/ha,[11],0%
same,plant injury at 250 g/ha,[12],0%
